{
  "source": "paper PMC6568410",
  "about": "“A scorpion venom peptide derivative BmKn‒22 with potent antibiofilm activity against Pseudomonas aeruginosa” (PLoS ONE, 2019)",
  "key": {"sheep red blood cells": {"tested_on": "sheep red blood cells", "experiment": "Hemolytic assay", "type": "cell-based", "conditions": "800 µM, 37 °C, 1 h", "procedure": "Hemolytic activity of the test peptides was assayed according to a protocol described previously. Suspension of 2% sheep red blood cells (100 μL) prepared in PBS pH 7.4 was incubated with 100 μL of the test peptides (800 μM, final concentration). After incubation at 37 ^OC for 1 h, the suspension was centrifuged at 1,000 g for 5 min followed by transferring 100 μL of the supernatant to 96 well-microtiter plate (Nunc). Released hemoglobin was then determined by measuring an absorbance at 405 nm using a microplate reader (BioTek Synergy HT). Positive and negative controls in this assay were 1% Triton X-100 and PBS pH 7.4, respectively. Hemolysis (%) was calculated using an equation: (OD405 nm peptide ‒ OD405 nm PBS pH 7.4)/(OD405 nm 1% Triton X-100 ‒ OD405 nm PBS pH 7.4) × 100."}, "[1]": {"tested_on": "P. aeruginosa PAO1 established biofilms", "experiment": "Established (24 h-preformed) biofilm assay, crystal violet staining", "type": "cell-based, Pseudomonas aeruginosa", "procedure": "Antibiofilm activity of the test peptides was also examined against established biofilms as follows. Aliquots of the P. aeruginosa PAO1 suspension adjusted to a final concentration of 10^6 CFU/mL were seeded into the wells of flat-bottomed 96-well microtiter plates (Nunc). Biofilms were established at 37°C for 24 h. After incubation, nonadherent planktonic cells were removed by gently washing the wells with sterile PBS pH 7.4. Preformed biofilms were then treated with the test peptides at concentrations of 200 ‒ 800 μM and incubated at 37°C for 24 h. Culture without the test peptides served as the untreated control. After the incubation, the test peptides were aspirated gently and the plates were rinsed twice with PBS pH 7.4. Biofilm biomass was subsequently quantified by 0.1% crystal violet staining as previously described."}, "[2]": {"tested_on": "P. aeruginosa PAO1 biofilm formation", "experiment": "Biofilm formation assay, crystal violet staining", "type": "cell-based, Pseudomonas aeruginosa", "procedure": "The effect of BmKn‒2 peptide and derivatives on biofilm formation of P. aeruginosa PAO1 was determined according to the method published previously with some modifications. Briefly, 100 μL of the test peptides was plated into the wells of flat-bottomed 96-well microtiter plates (Nunc™, Roskilde, Denmark) at the final concentrations of 200 ‒ 800 μM. Aliquots of the P. aeruginosa PAO1 suspension were then inoculated to the wells of 96-well microtiter plates to obtain a final concentration of 10^6 CFU/mL. Culture without the test peptides was used as the untreated control. After incubation at 37 ^OC for 24 h without agitation, planktonic cells were removed and the plates were gently rinsed twice with phosphate buffered saline (PBS) pH 7.4. Biofilms were then stained with 0.1% crystal violet solution (Merck, Darmstadt, Germany) for 10 minutes at room temperature. Excess stains were rinsed off with PBS pH 7.4 and the plates were left dry at 37 ^OC for 2 h. Subsequently, biofilm biomass was solubilized with 30% acetic acid and the optical density (OD) measured at 550 nm using a microplate reader (BioTek Synergy HT)."}, "rhlI mRNA": {"tested_on": "rhlI mRNA", "experiment": "qRT-PCR of quorum sensing-related gene rhlI", "type": "cell-based, Pseudomonas aeruginosa", "conditions": "800 µM, 10 h", "procedure": "(§1) The effects of BmKn‒22 peptide on the expression of quorum sensing‒related genes in P. aeruginosa PAO1 were assessed by qPCR. Briefly, bacterial suspension at approximately 10^7 CFU/mL was cultured in the presence or absence of the test peptide (800 μM, final concentration) at 37 ^OC for 10 h using a shaking incubator. After centrifugation at 4,500 rpm for 10 minutes, the bacterial cells were harvested and subsequently subjected to total RNA extraction using TRIzol® reagent (Invitrogen, USA) as per the manufacturer’s instruction. The concentration of the extracted RNA was measured using Nanodrop spectrophotometer (NanoDrop Technologies, USA). Thereafter, 1 μg of extracted RNA was reverse-transcribed into cDNA using Random Hexamer primer and RevertAid First Strand cDNA synthesis kit (Fermantas), which was amplified by real-time PCR. The primers for the genes lasI, lasR, RhlI, RhlR and 16S rRNA were used (Table 2). All primers were synthesized by the Integrated DNA Technology (IDT), Canada. The reaction mixture consisted of 1× AccuPower® 2X GreenStar™ qPCR Master Mix, 0.4 μmol/L each forward primer and reverse primer and 1 μL of cDNA in a final volume of 10 μL. Thermal cycles used was 95 ^OC for 2.5 min, followed by 40 cycles of 95 ^OC for 30 sec, 60 ^OC for 30 sec and 72 ^OC for 30 sec. The expression level of the target gene was normalized to 16S rRNA gene. Relative expression of the target genes was obtained from 2^‒ΔΔct."}, "lasR mRNA": {"tested_on": "lasR mRNA", "experiment": "qRT-PCR of quorum sensing-related gene lasR", "type": "cell-based, Pseudomonas aeruginosa", "conditions": "800 µM, 10 h", "procedure": "as §1"}, "[3]": {"tested_on": "pyocyanin production of P. aeruginosa PAO1", "experiment": "Pyocyanin assay, chloroform extraction", "type": "cell-based, Pseudomonas aeruginosa", "procedure": "Pyocyanin pigments produced by P. aeruginosa PAO1 after exposure to the BmKn‒22 peptide were determined according to the protocol described previously. Briefly, 750 μL of P. aeruginosa suspension (10^7 CFU/mL, final concentration) was mixed with 250 μL of LB broth containing the test peptide at final concentrations of 200 ‒ 800 μM and incubated at 37 ^OC for 24 hours with agitation (150 rpm). Control culture without the test peptide was simultaneously propagated. After centrifugation at 4,500 rpm for 10 minutes, supernatant was collected and pyocyanin was extracted with chloroform followed by 0.2 N HCl. The suspension was centrifuged once at 4,500 rpm for 10 minutes, and the pink phase layer was subjected to optical density determination at […] using a microplate reader (BioTek Synergy HT)."}, "[4]": {"conditions": "normalized to 16S rRNA, 2^-ΔΔct, untreated control = 1, mean of 2 independent experiments in quadruplicate"}},
  "note": "Where no end group is shown, it is not given here.",
  "data": [
    {"sequence": "FIGAIARLLSK [BmKn-22]", "values": [
      {"measurement": "lysis of red blood cells", "setting": "sheep red blood cells", "result": "less or no hemolysis"},
      {"measurement": "Biofilm inhibition (%), preformed biofilm", "setting": "[1]; 200 µM, Exp. 1", "result": 30.458, "unit": "%"},
      {"measurement": "Biofilm inhibition (%), preformed biofilm", "setting": "[1]; 200 µM, Exp. 2", "result": 17.360, "unit": "%"},
      {"measurement": "Biofilm inhibition (%), preformed biofilm", "setting": "[1]; 200 µM, Exp. 3", "result": 22.328, "unit": "%"},
      {"measurement": "Biofilm inhibition (%), preformed biofilm", "setting": "[1]; 400 µM, Exp. 1", "result": 27.005, "unit": "%"},
      {"measurement": "Biofilm inhibition (%), preformed biofilm", "setting": "[1]; 400 µM, Exp. 2", "result": 32.202, "unit": "%"},
      {"measurement": "Biofilm inhibition (%), preformed biofilm", "setting": "[1]; 400 µM, Exp. 3", "result": 27.300, "unit": "%"},
      {"measurement": "Biofilm inhibition (%), preformed biofilm", "setting": "[1]; 800 µM, Exp. 1", "result": 44.831, "unit": "%"},
      {"measurement": "Biofilm inhibition (%), preformed biofilm", "setting": "[1]; 800 µM, Exp. 2", "result": 34.141, "unit": "%"},
      {"measurement": "Biofilm inhibition (%), preformed biofilm", "setting": "[1]; 800 µM, Exp. 3", "result": 53.943, "unit": "%"},
      {"measurement": "Biofilm inhibition (%), biofilm formation", "setting": "[2]; 200 µM, Exp. 1", "result": 27.575, "unit": "%"},
      {"measurement": "Biofilm inhibition (%), biofilm formation", "setting": "[2]; 200 µM, Exp. 2", "result": 27.680, "unit": "%"},
      {"measurement": "Biofilm inhibition (%), biofilm formation", "setting": "[2]; 200 µM, Exp. 3", "result": 8.419, "unit": "%"},
      {"measurement": "Biofilm inhibition (%), biofilm formation", "setting": "[2]; 400 µM, Exp. 1", "result": 20.197, "unit": "%"},
      {"measurement": "Biofilm inhibition (%), biofilm formation", "setting": "[2]; 400 µM, Exp. 2", "result": 40.825, "unit": "%"},
      {"measurement": "Biofilm inhibition (%), biofilm formation", "setting": "[2]; 400 µM, Exp. 3", "result": 37.257, "unit": "%"},
      {"measurement": "reduction of P. aeruginosa biofilms", "setting": "[2]; 800 µM, 24 h, compared with untreated control, result in words", "result": "marked reduction"},
      {"measurement": "Biofilm inhibition (%), biofilm formation", "setting": "[2]; 800 µM, Exp. 1", "result": 46.468, "unit": "%"},
      {"measurement": "Biofilm inhibition (%), biofilm formation", "setting": "[2]; 800 µM, Exp. 2", "result": 53.212, "unit": "%"},
      {"measurement": "Biofilm inhibition (%), biofilm formation", "setting": "[2]; 800 µM, Exp. 3", "result": 47.945, "unit": "%"},
      {"measurement": "Relative mRNA expression, rhlI", "setting": "rhlI mRNA; [4]", "result": 1.127},
      {"measurement": "Relative mRNA expression, rhlI", "setting": "rhlI mRNA; Exp. 1", "result": 0.929},
      {"measurement": "Relative mRNA expression, rhlI", "setting": "rhlI mRNA; Exp. 2", "result": 1.325},
      {"measurement": "mRNA expression of rhlI", "setting": "rhlI mRNA; result in words", "result": "no alteration"},
      {"measurement": "Relative mRNA expression, lasR", "setting": "lasR mRNA; [4]", "result": 0.949},
      {"measurement": "Relative mRNA expression, lasR", "setting": "lasR mRNA; Exp. 1", "result": 0.732},
      {"measurement": "Relative mRNA expression, lasR", "setting": "lasR mRNA; Exp. 2", "result": 1.166},
      {"measurement": "mRNA expression of lasR", "setting": "lasR mRNA; result in words", "result": "no alteration"},
      {"measurement": "Pyocyanin production (% control)", "setting": "[3]; 200 µM, 37 °C, 24 h, 150 rpm, OD 380 nm, mean of 3 independent experiments", "result": 47.395, "unit": "% control"},
      {"measurement": "Pyocyanin production (% control)", "setting": "[3]; 200 µM, Exp. 1", "result": 62.849, "unit": "% control"},
      {"measurement": "Pyocyanin production (% control)", "setting": "[3]; 200 µM, Exp. 2", "result": 40.419, "unit": "% control"},
      {"measurement": "Pyocyanin production (% control)", "setting": "[3]; 200 µM, Exp. 3", "result": 38.918, "unit": "% control"},
      {"measurement": "Pyocyanin production (% control)", "setting": "[3]; 400 µM, 37 °C, 24 h, 150 rpm, OD 380 nm, mean of 3 independent experiments", "result": 48.157, "unit": "% control"},
      {"measurement": "Pyocyanin production (% control)", "setting": "[3]; 400 µM, Exp. 1", "result": 59.310, "unit": "% control"},
      {"measurement": "Pyocyanin production (% control)", "setting": "[3]; 400 µM, Exp. 2", "result": 37.273, "unit": "% control"},
      {"measurement": "Pyocyanin production (% control)", "setting": "[3]; 400 µM, Exp. 3", "result": 47.889, "unit": "% control"},
      {"measurement": "Pyocyanin production (% control)", "setting": "[3]; 800 µM, 37 °C, 24 h, 150 rpm, OD 380 nm, mean of 3 independent experiments", "result": 60.164, "unit": "% control"},
      {"measurement": "Pyocyanin production (% control)", "setting": "[3]; 800 µM, Exp. 1", "result": 68.994, "unit": "% control"},
      {"measurement": "Pyocyanin production (% control)", "setting": "[3]; 800 µM, Exp. 2", "result": 42.898, "unit": "% control"},
      {"measurement": "Pyocyanin production (% control)", "setting": "[3]; 800 µM, Exp. 3", "result": 68.601, "unit": "% control"}
    ]}
  ]
}
